Assay [1] has as its target T1, KDM4C (Homo sapiens, UniProt Q9H3R0).
T1 construct: Full length of KDM5B and KDM4C protein were purchased from Active Motif; purchased Active Motif 31858
T1 sequence (Q9H3R0 1-1056): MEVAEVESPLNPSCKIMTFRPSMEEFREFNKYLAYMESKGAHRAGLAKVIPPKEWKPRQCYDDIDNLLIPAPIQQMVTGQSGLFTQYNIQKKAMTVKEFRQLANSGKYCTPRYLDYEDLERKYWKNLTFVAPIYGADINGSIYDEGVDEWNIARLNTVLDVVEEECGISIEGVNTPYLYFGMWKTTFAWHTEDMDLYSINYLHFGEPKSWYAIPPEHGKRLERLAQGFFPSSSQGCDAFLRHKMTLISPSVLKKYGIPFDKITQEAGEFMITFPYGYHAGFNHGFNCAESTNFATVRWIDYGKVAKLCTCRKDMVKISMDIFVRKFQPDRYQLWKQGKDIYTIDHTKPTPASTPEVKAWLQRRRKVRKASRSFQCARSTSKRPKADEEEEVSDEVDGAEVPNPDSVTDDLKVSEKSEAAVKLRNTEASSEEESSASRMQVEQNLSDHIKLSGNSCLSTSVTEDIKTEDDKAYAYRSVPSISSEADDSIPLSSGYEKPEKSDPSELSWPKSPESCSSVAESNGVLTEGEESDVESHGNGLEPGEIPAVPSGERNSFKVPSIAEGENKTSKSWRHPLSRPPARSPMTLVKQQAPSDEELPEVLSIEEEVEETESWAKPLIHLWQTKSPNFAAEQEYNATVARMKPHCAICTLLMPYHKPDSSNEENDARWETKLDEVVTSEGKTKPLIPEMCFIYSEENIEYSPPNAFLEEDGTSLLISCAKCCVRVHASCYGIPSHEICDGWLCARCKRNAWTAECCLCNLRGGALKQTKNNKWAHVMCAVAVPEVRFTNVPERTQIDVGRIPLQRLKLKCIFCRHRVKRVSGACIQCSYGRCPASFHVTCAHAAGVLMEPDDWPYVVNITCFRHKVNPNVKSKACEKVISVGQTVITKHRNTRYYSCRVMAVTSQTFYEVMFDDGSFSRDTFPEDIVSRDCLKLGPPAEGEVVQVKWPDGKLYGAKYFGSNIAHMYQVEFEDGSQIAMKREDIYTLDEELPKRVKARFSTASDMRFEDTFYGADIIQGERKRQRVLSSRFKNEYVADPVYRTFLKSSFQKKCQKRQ
In words: KDM4C AlphaScreen assay. Format: biochemical. The settings on record: AlphaScreen; full length KDM4C 0.2 nM; biotinylated H3K9Me3 peptide 3 nM; 30 minutes at room temperature. The gist of the method:
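Full-length KDM4C (0.2 nM final) was preincubated 15 min at RT with compound in HEPES pH 7.4 with Tween-20, BSA and TCEP. The reaction ran 30 min at RT after adding biotinylated peptide (3 nM final) in buffer with Fe(II), α-ketoglutarate and ascorbate. EDTA-containing AlphaScreen beads stopped it; IC50 was curve-fitted.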

The target in assay [2] is T2, KDM5B (Homo sapiens, UniProt Q9UGL1).
T2 construct: Full length of KDM5B and KDM4C protein were purchased from Active Motif; purchased Active Motif 31832
In words: biochemical. A digest of the protocol:
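KDM5B (0.5 nM final) was preincubated with compound for 15 min at room temperature, then reacted with biotinylated peptide (3 nM final) for 25 min at room temperature.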

The mark [3] stands for this setting: AlphaScreen, full length KDM5B 0.5 nM, biotinylated H3K4Me3 peptide 3 nM, 25 minutes at room temperature, read-out: KDM5B (IC50).

Where two headings read alike, the source gives them in different places.

T2 sequence (Q9UGL1 whole entry): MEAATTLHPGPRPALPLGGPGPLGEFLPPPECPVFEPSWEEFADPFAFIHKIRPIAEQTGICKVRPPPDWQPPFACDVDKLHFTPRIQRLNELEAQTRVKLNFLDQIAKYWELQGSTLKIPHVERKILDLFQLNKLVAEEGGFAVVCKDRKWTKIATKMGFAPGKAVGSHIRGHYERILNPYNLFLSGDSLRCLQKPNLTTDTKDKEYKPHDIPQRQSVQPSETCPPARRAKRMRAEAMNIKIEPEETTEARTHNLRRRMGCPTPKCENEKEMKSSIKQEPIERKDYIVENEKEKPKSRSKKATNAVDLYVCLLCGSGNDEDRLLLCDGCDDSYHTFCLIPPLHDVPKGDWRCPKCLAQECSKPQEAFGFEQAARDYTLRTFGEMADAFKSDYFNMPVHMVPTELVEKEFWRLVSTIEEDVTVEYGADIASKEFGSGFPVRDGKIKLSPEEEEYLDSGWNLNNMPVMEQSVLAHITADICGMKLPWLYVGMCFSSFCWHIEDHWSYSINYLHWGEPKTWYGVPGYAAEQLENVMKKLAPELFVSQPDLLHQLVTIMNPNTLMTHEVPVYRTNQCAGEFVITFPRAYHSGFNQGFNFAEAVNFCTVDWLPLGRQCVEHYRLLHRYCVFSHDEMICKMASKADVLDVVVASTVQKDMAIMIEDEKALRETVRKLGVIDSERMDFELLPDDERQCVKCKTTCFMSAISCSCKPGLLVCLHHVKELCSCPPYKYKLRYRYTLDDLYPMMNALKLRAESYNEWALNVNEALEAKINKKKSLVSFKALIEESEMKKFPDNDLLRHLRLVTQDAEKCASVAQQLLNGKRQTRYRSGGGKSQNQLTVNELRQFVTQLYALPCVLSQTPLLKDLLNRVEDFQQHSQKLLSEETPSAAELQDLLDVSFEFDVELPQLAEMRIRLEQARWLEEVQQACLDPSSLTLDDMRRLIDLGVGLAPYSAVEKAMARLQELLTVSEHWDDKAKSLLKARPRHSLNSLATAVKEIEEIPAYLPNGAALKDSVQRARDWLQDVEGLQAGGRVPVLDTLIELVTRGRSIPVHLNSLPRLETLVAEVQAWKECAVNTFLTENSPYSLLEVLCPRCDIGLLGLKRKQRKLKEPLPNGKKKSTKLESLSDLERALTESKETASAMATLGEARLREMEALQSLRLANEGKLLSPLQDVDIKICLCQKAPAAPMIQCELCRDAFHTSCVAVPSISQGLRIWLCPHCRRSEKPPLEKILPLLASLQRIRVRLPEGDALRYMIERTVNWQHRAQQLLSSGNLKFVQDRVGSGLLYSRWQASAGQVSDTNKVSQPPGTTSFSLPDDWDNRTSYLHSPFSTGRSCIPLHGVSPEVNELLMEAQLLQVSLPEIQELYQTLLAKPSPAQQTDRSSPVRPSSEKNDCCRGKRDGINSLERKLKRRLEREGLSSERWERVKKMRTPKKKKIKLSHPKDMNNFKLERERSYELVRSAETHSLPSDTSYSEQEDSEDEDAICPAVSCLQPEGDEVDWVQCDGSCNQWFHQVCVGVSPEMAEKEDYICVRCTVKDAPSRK

As a reminder, the IC50 is the concentration that inhibits the measured activity by half. Take `CC(C)c1c(O)nc(-n2ccnc2)nc1-c1cnn(CC(=O)NCCN(C)c2ccccc2)c1` [Example 102, 2-{4-[6-Hydroxy-2-(1H-imidazol-1-yl)-5-(propan-2-yl)pyrimidin-4-yl]-1H-pyrazol-1-yl}-N-{2-[methyl-(phenyl)amino]ethyl}-acetamide]: the IC50 in assay [1] came to 1400 nM; in assay [2] (setting [3]), 14 nM.

`CC(C)c1c(O)nc(-n2ccnc2)nc1-c1cnn(CC(=O)N2CCCC(C#N)C2)c1` (stereo not drawn) [Example 103, 1-(2-{4-[6-Hydroxy-2-(1H-imidazol-1-yl)-5-(propan-2-yl)pyrimidin-4-yl]-1H-pyrazol-1-yl}acetyl)-piperidine-3-carbonitrile]: the IC50 in assay [1] worked out at 909 nM; in assay [2], 15 nM.

As for `CC(C)c1c(O)nc(-n2ccnc2)nc1-c1cnn(CC(=O)NCCO)c1` [Example 104, 2-{4-[6-Hydroxy-2-(1H-imidazol-1-yl)-5-(propan-2-yl)pyrimidin-4-yl]-1H-pyrazol-1-yl}-N-(2-hydroxy-ethyl)acetamide], the concentration for half-maximal inhibition (IC50) in assay [1] stood at 1380 nM; in assay [2], 15 nM.

As to `CC(C)c1c(O)nc(-n2ccnc2)nc1-c1cnn(CC(=O)NCCc2ccccn2)c1` [Example 105, 2-{4-[6-Hydroxy-2-(1H-imidazol-1-yl)-5-(propan-2-yl)pyrimidin-4-yl]-1H-pyrazol-1-yl}-N-[2-(pyridin-2-yl)ethyl]acetamide], the IC50 was 1080 nM in assay [1] and 17 nM in assay [2].

Consider `CC(C)c1c(O)nc(-n2ccnc2)nc1-c1cnn(CC(=O)NCc2ccn(C)n2)c1` [Example 106, 2-{4-[6-Hydroxy-2-(1H-imidazol-1-yl)-5-(propan-2-yl)pyrimidin-4-yl]-1H-pyrazol-1-yl}-N-[(1-methyl-1H-pyrazol-3-yl)methyl]-acetamide], for which the IC50 in assay [1] was found to be 869 nM; in assay [2] it was 18 nM.

In the case of `CC(C)c1c(O)nc(-n2ccnc2)nc1-c1cnn(CC(=O)NCCS(C)(=O)=O)c1` [Example 107, 2-{4-[6-Hydroxy-2-(1H-imidazol-1-yl)-5-(propan-2-yl)pyrimidin-4-yl]-1H-pyrazol-1-yl}-N-(2-methane-sulfonylethyl)acetamide], the IC50 in assay [1] is 1220 nM; in assay [2] (setting [3]), 19 nM.

Turning to `CC(C)c1c(O)nc(-n2ccnc2)nc1-c1cnn(CC(=O)NCCN2CCCC2=O)c1` [Example 109, 2-{4-[6-Hydroxy-2-(1H-imidazol-1-yl)-5-(propan-2-yl)pyrimidin-4-yl]-1H-pyrazol-1-yl}-N-[2-(2-oxo-pyrrolidin-1-yl)ethyl]-acetamide], the IC50 in assay [1] came to 1540 nM; in assay [2] (setting [3]) it was 20 nM.

Consider `CC(C)c1c(O)nc(-n2ccnc2)nc1-c1cnn(CC(=O)N2CCC(C#N)CC2)c1` [Example 110, 1-(2-{4-[6-Hydroxy-2-(1H-imidazol-1-yl)-5-(propan-2-yl)pyrimidin-4-yl]-1H-pyrazol-1-yl}acetyl)-piperidine-4-carbonitrile], for which the IC50 in assay [1] amounted to 1250 nM; in assay [2], 21 nM.

As for `CC(C)c1c(O)nc(-n2ccnc2)nc1-c1cnn(CC(=O)NCCN(CC(F)(F)F)C2CC2)c1` [Example 111, N-[2-[Cyclopropyl(2,2,2-trifluoroethyl)amino]ethyl}-2-{4-[6-hydroxy-2-(1H-imidazol-1-yl)-5-(propan-2-yl)pyrimidin-4-yl]-1H-pyrazol-1-yl}acetamide], the figures for the half-maximal inhibitory concentration (IC50) in assay [1] and in assay [2] were 2120 nM and 21 nM, respectively.

For `CC(C)c1c(O)nc(-n2ccnc2)nc1-c1cnn(CC(=O)N2CCC(O)C2)c1` (stereo not drawn) [Example 112, 2-{4-[6-Hydroxy-2-(1H-imidazol-1-yl)-5-(propan-2-yl)pyrimidin-4-yl]-1H-pyrazol-1-yl}-1-(3-hydroxy-pyrrolidin-1-yl)ethan-1-one], the IC50 is 1600 nM in assay [1] and 21 nM in assay [2].

As for `CNC(=O)Cn1cc(-c2nc(-n3ccnc3)nc(O)c2C(C)C)cn1` [Example 113, 2-{4-[6-Hydroxy-2-(1H-imidazol-1-yl)-5-(propan-2-yl)pyrimidin-4-yl]-1H-pyrazol-1-yl)-N-methyl-acetamide], the values for the 50% inhibitory concentration (IC50) in assay [1] and in assay [2] were 2090 nM and 24 nM, respectively.

On to `CC(C)c1c(O)nc(-n2ccnc2)nc1-c1cnn(CC(=O)NCC(N)=O)c1` [Example 114, N-(Carbamoylmethyl)-2-{4-[6-hydroxy-2-(1H-imidazol-1-yl)-5-(propan-2-yl)pyrimidin-4-yl]-1H-pyrazol-1-yl}-acetamide], for which the IC50 is 2030 nM in assay [1] and 26 nM in assay [2].

As to `CC(C)c1c(O)nc(-n2ccnc2)nc1-c1cnn(CC(=O)NC(CO)C(C)C)c1` (stereo not drawn) [Example 115, 2-{4-[6-Hydroxy-2-(1H-imidazol-1-yl)-5-(propan-2-yl)pyrimidin-4-yl]-1H-pyrazol-1-yl}-N-(1-hydroxy-3-methylbutan-2-yl)acetamide], the IC50 in assay [1] was found to be 1250 nM; in assay [2], 30 nM.

Regarding `CC(C)c1c(O)nc(-n2ccnc2)nc1-c1cnn(CC(=O)NCCN(C)CC(F)(F)F)c1` [Example 116, 2-{4-[6-Hydroxy-2-(1H-imidazol-1-yl)-5-(propan-2-yl)pyrimidin-4-yl]-1H-pyrazol-1-yl}-N-{2-[methyl-(2,2,2-trifluoroethyl)amino]-ethyl}acetamide], the IC50 in assay [1] came out at 2250 nM; in assay [2] it was 30 nM.

For the compound `CC(C)c1c(O)nc(-n2ccnc2)nc1-c1cnn(CC(=O)N2CCOCC2)c1` [Example 117, 2-{4-[6-Hydroxy-2-(1H-imidazol-1-yl)-5-(propan-2-yl)pyrimidin-4-yl]-1H-pyrazol-1-yl}-1-(morpholin-4-yl)ethan-1-one], the IC50 in assay [1] was found to be 1970 nM; in assay [2] it was 31 nM.

`COCCNC(=O)Cn1cc(-c2nc(-n3ccnc3)nc(O)c2C(C)C)cn1` [Example 118, 2-{4-[6-Hydroxy-2-(1H-imidazol-1-yl)-5-(propan-2-yl)pyrimidin-4-yl]-1H-pyrazol-1-yl}-N-(2-methoxy-ethyl)acetamide]: the IC50 in assay [1] worked out at 3080 nM; in assay [2], 33 nM.

For the compound `CC(C)c1c(O)nc(-n2ccnc2)nc1-c1cnn(CC(=O)N2CCC(O)CC2)c1` [Example 119, 2-{4-[6-Hydroxy-2-(1H-imidazol-1-yl)-5-(propan-2-yl)pyrimidin-4-yl]-1H-pyrazol-1-yl}-1-(4-hydroxy-piperidin-1-yl)ethan-1-one], the IC50 in assay [1] is 1850 nM; in assay [2] (setting [3]) it was 39 nM.

Turning to `CNC(=O)c1ccc(-c2nc(-n3ccnc3)nc(O)c2C(C)C)cn1` [Example 120, 5-[6-Hydroxy-2-(1H-imidazol-1-yl)-5-(propan-2-yl)pyrimidin-4-yl]-N-methyl-pyridine-2-carboxamide], the IC50 in assay [1] came out at 2190 nM; in assay [2] (setting [3]), 18 nM.

Turning to `CC(C)c1c(O)nc(-n2ccnc2)nc1-c1ccc(C(=O)O)nc1` [Example 121, 5-[6-Hydroxy-2-(1H-imidazol-1-yl)-5-(propan-2-yl)pyrimidin-4-yl]pyridine-2-carboxylic acid], the IC50 in assay [1] is 837 nM; in assay [2], 18 nM.

`CC(C)c1c(O)nc(-n2ccnc2)nc1OCCN1CCN(C)CC1` [Example 122, 2-(1H-Imidazol-1-yl)-6-[2-(4-methylpiperazin-1-yl)ethoxy]-5-(propan-2-yl)pyrimidin-4-ol]: the IC50 in assay [1] is 1270 nM; in assay [2] (setting [3]), 7 nM.

As for `CC(C)c1c(O)nc(-n2ccnc2)nc1OCCN1CCOCC1` [Example 123, 2-(1H-Imidazol-1-yl)-6-[2-(morpholin-4-yl)ethoxy]-5-(propan-2-yl)pyrimidin-4-ol], the IC50 was 1590 nM in assay [1] and 9 nM in assay [2].
